Data: publication PMC6208284 (Phytotherapy Research, 2018)

Tests used:
[1] = test system: Leishmania tarentolae promastigotes (LtP); experiment: Low molecular thiols in LtP, CMFDA method; type: cell-based; conditions: 5 hr incubation at 26 °C, PBS/glucose
Protocol: LtP were centrifuged twice (1,800 g, 10 min, 20 °C), the cell pellets were resuspended in PBS/glucose (15 mM), and the cell number was adjusted to 1 × 10^7/ml. Aliquots (250 μl) were added to 96‐well plates (black, nontreated plates), along with compound stocks (keeping a maximum of 2% DMSO). Following a 5‐hr incubation at 26 °C, plates were centrifuged (1,800 g, 10 min, 20 °C), and 200 μl of supernatant was removed. To the remaining cell suspension, 100 μl of CMFDA in PBS was added giving a final concentration of 5 μM. After gentle shaking, the cells were incubated for 15 min at 37 °C in the dark. The fluorescence of the methyl fluorescein (MF)‐thiol adduct (Sarkar, Mandal, Singh, Sundar, & Chatterjee, 2009) was measured at 15, 30, 45, and 60 min at 485 nm (excitation wavelength) and 530 nm (emission wavelength) using a plate reader (PerkinElmer Enspire, Germany). The OD600 nm was determined for cell count, and the measured fluorescence intensity was normalized to the cell number. Three replicate measurements were performed for each condition.

[2] = test system: Leishmania tarentolae promastigotes (LtP); experiment: Superoxide radical detection in LtP by CMH/ESR; type: cell-based; conditions: for CM● formation (superoxide radicals) in LtP: 100 μM compound, immediate, with DFO and DTPA
Protocol: Detection of superoxide radicals was performed using CMH as reaction partner and measuring the formed stable nitroxyl radicals by electron spin resonance (ESR) spectroscopy. Measurements were performed in PBS (136 mM NaCl, 1.15 mM KH2PO4, 14 mM Na2HPO4, and 2.7 mM KCl, pH 7.4) containing 15 mM glucose, 400 μM CMH, and 100 μM DFO (desferrioxamine mesylate) and 25 μM DTPA. Usually, these assays are performed in the presence of iron chelators (DFO and DTPA) to prevent CMH interaction with free Fe^3+ leading to CM^● unrelated to superoxide radicals. Before the measurements, LtP suspensions were washed twice with PBS to remove the medium. Typical experiments contained 5 × 10^8 LtP cells/ml. Stock solutions of EO compounds dissolved in DMSO were added. The influence of Asc (6–700 μM) on the CMH oxidation rate by LtP was assessed immediately and after prolonged incubation time (1 hr between Asc and CMH addition). The influence of iron‐dependent Asc activation in LtP on CMH oxidation was studied in the absence of iron chelators DFO and DTPA. Prior to the ESR measurement, 400 μM CMH was added. Afterwards, 17 μl of suspension was aspirated in gas‐permeable Teflon tubes (ID 0.7 mm). This capillary tube was placed in the resonator of the ESR instrument (Bruker EMX, split ring MD5, Germany), and 10 sequential measurements were performed. The following instrument settings were used: microwave frequency 9.682 GHz, modulation frequency 100 kHz, modulation amplitude 1 G, time constant 0.082 s, center field 3,446 G, scan rate 71 G/min, sweep width 100 G, scan time 84 s, and attenuation CMH: 7.96 × 10^3. From the ESR spectra, the middle peak intensity was retrieved, and concentrations of oxidized CMH were obtained by comparison with a standard curve prepared from 3‐carboxy‐proxyl solutions with defined concentrations. Four replicate measurements were performed for each condition.

[3] = test system: Leishmania tarentolae promastigotes (LtP); experiment: Mitochondrial coupling (RCR) in LtP, Clark-type electrode, short- and long-term incubation; type: cell-based; conditions: 200 μM
Protocol: Direct inhibitors of mitochondrial ETC instantaneously influence mitochondrial oxygen consumption. To assay the effect of EO compounds on oxygen consumption of LtP, a Clark‐type oxygen electrode (Hansatech, Germany) and software MCREC were used. LtP at approximately 10^8 cells/ml in YEM (25 °C) were added and treated with increasing concentrations of EO compounds between 10 and 200 μM and for EO 5.6–89.6 μg/ml. Each concentration was assayed in quadruplicates, and the results were expressed as percentage of oxygen consumption in comparison with the untreated control LtP. The highest concentration of the vehicle (1% DMSO) caused only 2% inhibition. The uncoupling effect in short‐term and long‐term (0, 6, and 24 hr) incubations with Asc (200 μM) was studied in Oligo‐inhibited (5 μM) and uncoupler‐stimulated (0.5 μM CCCP) LtP in Schneider's medium supplemented with 6 μM hemin. Four replicates were performed for each concentration.

[4] = test system: Leishmania amazonensis promastigotes (LaP); design: method as in Monzote, Garcia, et al., 2014; conditions: after 72 hr of incubation; ref Monzote, Garcia, et al., 2014; cited from earlier work
[5] = design: method as in Rappoport & Frankel, 1967; conditions: ref Rappoport & Frankel, 1967; cited from earlier work

Compound | Low molecular thiol status (rate of thiol‐MF adduct formation) [1] | CM● formation (superoxide radicals) in LtP [2] | Effect on mitochondrial coupling in LtP ([3]; immediately after addition) | RCR with respect to vehicle‐treated LtP ([3]; prolonged incubation (6 and 24 hr)) | Membrane potential of LaP (JC‐1) [4] | CMH oxidation (superoxide radical formation) triggered in LtP ([2]; Asc 6–700 μM, 0 hr vs 1 hr incubation, with/without iron chelators) | pKa value [5]
C=C1CC[C@H]2O[C@]2(C)CC[C@@H]2[C@@H]1CC2(C)C [Caryo, caryophyllene oxide] | decrease | only slightly increased |  |  |  |  | 
CC(C)C12C=CC(C)(CC1)OO2 (centres unmarked) [Asc, ascaridole] |  | only slightly increased | only little effects | declined | decrease | increasingly effective upon prolonged incubation and in the absence of iron chelators | 
Cc1ccc(C(C)C)cc1O [Car, carvacrol] |  |  |  |  |  |  | around 10
